According to PubChem BioAssay (NCI):
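At the GI50, growth is halved. TGI: concentration producing complete growth inhibition.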

Tests used:
Experiment in all cases: DTP human tumour cell line panel, 384-well format
[1] = test system: 786-0 renal
[2] = test system: A498 renal
[3] = test system: A549 NSCLC
[4] = test system: ACHN renal
[5] = test system: BT-549 breast
[6] = test system: CAKI-1 renal
[7] = test system: CCRF-CEM leukemia
[8] = test system: COLO 205 colon
[9] = test system: DU-145 prostate
[10] = test system: EKVX NSCLC
[11] = test system: HCC-2998 colon
[12] = test system: HCT-116 colon
[13] = test system: HCT-15 colon
[14] = test system: HL-60(TB) leukemia
[15] = test system: HOP-62 NSCLC
[16] = test system: HOP-92 NSCLC
[17] = test system: HS 578T breast
[18] = test system: HT29 colon
[19] = test system: IGROV1 ovarian
[20] = test system: K-562 leukemia
[21] = test system: KM12 colon
[22] = test system: LOX IMVI melanoma
[23] = test system: M14 melanoma
[24] = test system: MALME-3M melanoma
[25] = test system: MCF7 breast
[26] = test system: MDA-MB-231 breast
[27] = test system: MDA-MB-435 melanoma
[28] = test system: MDA-MB-468 breast
[29] = test system: MOLT-4 leukemia

O=C(Oc1ccc([N+](=O)[O-])cc1)N1CCC(C(O)(c2ccc3c(c2)OCO3)c2ccc3c(c2)OCO3)CC1
GI50 [1]: > 100 µM | TGI [1]: > 100 µM | GI50 [2]: > 100 µM | TGI [2]: > 100 µM | GI50 [3]: > 100 µM | TGI [3]: > 100 µM | GI50 [4]: > 100 µM | TGI [4]: > 100 µM | GI50 [5]: 53.1 µM | TGI [5]: > 100 µM | GI50 [6]: > 100 µM | TGI [6]: > 100 µM | GI50 [7]: > 100 µM | TGI [7]: > 100 µM | GI50 [8]: > 100 µM | TGI [8]: > 100 µM | GI50 [9]: > 100 µM | TGI [9]: > 100 µM | GI50 [10]: > 100 µM | TGI [10]: > 100 µM | GI50 [11]: 18.2 µM | TGI [11]: > 100 µM | GI50 [12]: > 100 µM | TGI [12]: > 100 µM | GI50 [13]: > 100 µM | TGI [13]: > 100 µM | GI50 [14]: > 100 µM | TGI [14]: > 100 µM | GI50 [15]: > 100 µM | TGI [15]: > 100 µM | GI50 [16]: 44.5 µM | TGI [16]: > 100 µM | GI50 [17]: 24.5 µM | TGI [17]: > 100 µM | GI50 [18]: > 100 µM | TGI [18]: > 100 µM | GI50 [19]: > 100 µM | TGI [19]: > 100 µM | GI50 [20]: > 100 µM | TGI [20]: > 100 µM | GI50 [21]: > 100 µM | TGI [21]: > 100 µM | GI50 [22]: > 100 µM | TGI [22]: > 100 µM | GI50 [23]: > 100 µM | TGI [23]: > 100 µM | GI50 [24]: > 100 µM | TGI [24]: > 100 µM | GI50 [25]: > 100 µM | TGI [25]: > 100 µM | GI50 [26]: > 100 µM | TGI [26]: > 100 µM | GI50 [27]: > 100 µM | TGI [27]: > 100 µM | GI50 [28]: 32.6 µM | TGI [28]: > 100 µM | GI50 [29]: > 100 µM | TGI [29]: > 100 µM
